The supplement of paper PMC12463676, “Small-molecule dissolution of stress granules by redox modulation benefits ALS models” (Nature Chemical Biology, 2025)

How the values were obtained:
lipoamide = compound: NC(=O)CCCCC1CCSS1 [lipoamide]; assay: thermal stability z-score vs DMSO; higher = more thermally stabilized by treatment; conditions: HeLa, lipoamide concentration 100 µM
Experimental: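 Cellular thermal proteome profiling in HeLa cells. Cells were treated with 100 µM lipoamide for 1 h, with or without 1 mM arsenate for a further 1 h, then heated to ten temperatures (37-66.3 °C), and soluble protein was quantified by TMT mass spectrometry relative to 0.1% DMSO controls. The thermal stability score (sum of log2 fold changes minus the abundance score) was transformed to a z-score; mean of n = 3 experiments.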

potassium arsenate = compound: O=[As]([O-])(O)O.[K+] [potassium arsenate]; assay: as above; conditions: HeLa; arsenate concentration 1 mM
Experimental: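 Cellular thermal proteome profiling in HeLa cells treated with 1 mM arsenate for 1 h (DMSO pretreatment), heated to ten temperatures (37-66.3 °C). Soluble protein was quantified by TMT mass spectrometry relative to DMSO controls; the thermal stability score was transformed to a z-score; mean of n = 3 experiments.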

[1] = arsenate co-treatment: 1 mM arsenate 1 h
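Note: each temperature applied for 3 min, abundance score taken as mean log2 fold change at the two lowest temperatures, z-score obtained by mean subtraction and division by SD.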

## WDR13 (UniProt Q9H1Z4)
lipoamide; [1]
  thermal stability z-score: -0.241
lipoamide; arsenate co-treatment: none
  thermal stability z-score: -0.115
Potassium arsenate
  thermal stability z-score: -0.408

## WDR34 (UniProt Q96EX3)
lipoamide; [1]
  thermal stability z-score: -0.251
lipoamide; arsenate co-treatment: none
  thermal stability z-score: -0.215
Potassium arsenate
  thermal stability z-score: -0.776

## UBE2E2 (UniProt Q96LR5)
UniProt Q96LR5, sequence (Q96LR5 whole entry): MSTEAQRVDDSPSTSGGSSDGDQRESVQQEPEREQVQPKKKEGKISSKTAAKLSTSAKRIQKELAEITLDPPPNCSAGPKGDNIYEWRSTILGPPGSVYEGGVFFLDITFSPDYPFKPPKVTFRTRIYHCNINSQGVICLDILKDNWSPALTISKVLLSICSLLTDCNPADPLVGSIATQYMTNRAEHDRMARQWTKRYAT
lipoamide; [1]
  thermal stability z-score: -0.607
lipoamide; arsenate co-treatment: none
  thermal stability z-score: -0.124
Potassium arsenate
  thermal stability z-score: 4.13

## KRAS (UniProt P01116)
UniProt P01116, sequence (P01116 whole entry, looked up): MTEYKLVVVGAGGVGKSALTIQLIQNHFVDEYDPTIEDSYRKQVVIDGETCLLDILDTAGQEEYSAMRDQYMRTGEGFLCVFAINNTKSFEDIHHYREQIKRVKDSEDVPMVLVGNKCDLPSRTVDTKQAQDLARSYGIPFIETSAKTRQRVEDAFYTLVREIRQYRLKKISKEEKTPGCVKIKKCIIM
lipoamide; [1]
  thermal stability z-score: 0.168
lipoamide; arsenate co-treatment: none
  thermal stability z-score: 0.186
Potassium arsenate
  thermal stability z-score: 0.184

## CORO1B (UniProt Q9BR76)
lipoamide; [1]
  thermal stability z-score: -0.396
lipoamide; arsenate co-treatment: none
  thermal stability z-score: -0.129
Potassium arsenate
  thermal stability z-score: -0.66

## SCYL3 (UniProt Q8IZE3)
lipoamide; [1]
  thermal stability z-score: -0.406
lipoamide; arsenate co-treatment: none
  thermal stability z-score: -0.146
Potassium arsenate
  thermal stability z-score: -0.314

## PGK1 (UniProt P00558)
UniProt P00558, sequence (P00558 whole entry): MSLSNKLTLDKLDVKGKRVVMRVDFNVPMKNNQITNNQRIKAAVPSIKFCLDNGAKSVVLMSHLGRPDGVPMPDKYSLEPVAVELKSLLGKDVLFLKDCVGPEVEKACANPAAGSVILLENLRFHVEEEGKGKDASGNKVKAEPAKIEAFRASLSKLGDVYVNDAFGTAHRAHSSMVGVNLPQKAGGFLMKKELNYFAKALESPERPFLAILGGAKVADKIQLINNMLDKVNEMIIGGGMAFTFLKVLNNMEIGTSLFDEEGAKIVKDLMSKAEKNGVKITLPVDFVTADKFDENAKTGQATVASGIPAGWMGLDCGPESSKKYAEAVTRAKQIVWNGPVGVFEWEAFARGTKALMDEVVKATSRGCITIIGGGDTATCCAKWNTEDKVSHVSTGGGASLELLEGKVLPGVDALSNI
lipoamide; [1]
  thermal stability z-score: 0.239
lipoamide; arsenate co-treatment: none
  thermal stability z-score: 0.256
Potassium arsenate
  thermal stability z-score: -0.469

## TMEM68 (UniProt Q96MH6)
lipoamide; [1]
  thermal stability z-score: 0.361
lipoamide; arsenate co-treatment: none
  thermal stability z-score: -0.287
Potassium arsenate
  thermal stability z-score: -0.552

## POLR2I (UniProt P36954)
lipoamide; [1]
  thermal stability z-score: 1.79
lipoamide; arsenate co-treatment: none
  thermal stability z-score: 0.367
Potassium arsenate
  thermal stability z-score: -2.41

## SPC25 (UniProt Q9HBM1)
lipoamide; [1]
  thermal stability z-score: 0.989
lipoamide; arsenate co-treatment: none
  thermal stability z-score: -0.483
Potassium arsenate
  thermal stability z-score: 0.191

## PISD (UniProt Q9UG56)
lipoamide; [1]
  thermal stability z-score: 0.488
lipoamide; arsenate co-treatment: none
  thermal stability z-score: 0.414
Potassium arsenate
  thermal stability z-score: 0.0415

## CLASP2 (UniProt O75122)
lipoamide; [1]
  thermal stability z-score: -0.0563
lipoamide; arsenate co-treatment: none
  thermal stability z-score: -0.198
Potassium arsenate
  thermal stability z-score: 0.0564

## EPRS (UniProt P07814)
lipoamide; [1]
  thermal stability z-score: -0.648
lipoamide; arsenate co-treatment: none
  thermal stability z-score: -0.436
Potassium arsenate
  thermal stability z-score: 0.432

## ABL1 (UniProt P00519)
lipoamide; [1]
  thermal stability z-score: -0.261
lipoamide; arsenate co-treatment: none
  thermal stability z-score: -0.21
Potassium arsenate
  thermal stability z-score: 0.137

## SLC25A17 (UniProt O43808)
lipoamide; [1]
  thermal stability z-score: -0.416
lipoamide; arsenate co-treatment: none
  thermal stability z-score: -0.577
Potassium arsenate
  thermal stability z-score: -0.824

## DTD1 (UniProt Q8TEA8)
UniProt Q8TEA8, sequence (Q8TEA8 whole entry): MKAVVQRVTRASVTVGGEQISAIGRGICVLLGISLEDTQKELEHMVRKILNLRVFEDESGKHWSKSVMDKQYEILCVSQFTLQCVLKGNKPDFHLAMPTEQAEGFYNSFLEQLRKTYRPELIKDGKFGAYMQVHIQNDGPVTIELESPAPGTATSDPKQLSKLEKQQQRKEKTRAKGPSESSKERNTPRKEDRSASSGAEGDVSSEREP
lipoamide; [1]
  thermal stability z-score: 0.65
lipoamide; arsenate co-treatment: none
  thermal stability z-score: 0.308
Potassium arsenate
  thermal stability z-score: 0.163

## PDE2A (UniProt O00408)
lipoamide; [1]
  thermal stability z-score: -0.284
lipoamide; arsenate co-treatment: none
  thermal stability z-score: 0.382
Potassium arsenate
  thermal stability z-score: -0.355

## ARV1 (UniProt Q9H2C2)
lipoamide; [1]
  thermal stability z-score: 0.292
lipoamide; arsenate co-treatment: none
  thermal stability z-score: 0.473
Potassium arsenate
  thermal stability z-score: -0.894

## API5 (UniProt Q9BZZ5)
UniProt Q9BZZ5, sequence (Q9BZZ5 whole entry): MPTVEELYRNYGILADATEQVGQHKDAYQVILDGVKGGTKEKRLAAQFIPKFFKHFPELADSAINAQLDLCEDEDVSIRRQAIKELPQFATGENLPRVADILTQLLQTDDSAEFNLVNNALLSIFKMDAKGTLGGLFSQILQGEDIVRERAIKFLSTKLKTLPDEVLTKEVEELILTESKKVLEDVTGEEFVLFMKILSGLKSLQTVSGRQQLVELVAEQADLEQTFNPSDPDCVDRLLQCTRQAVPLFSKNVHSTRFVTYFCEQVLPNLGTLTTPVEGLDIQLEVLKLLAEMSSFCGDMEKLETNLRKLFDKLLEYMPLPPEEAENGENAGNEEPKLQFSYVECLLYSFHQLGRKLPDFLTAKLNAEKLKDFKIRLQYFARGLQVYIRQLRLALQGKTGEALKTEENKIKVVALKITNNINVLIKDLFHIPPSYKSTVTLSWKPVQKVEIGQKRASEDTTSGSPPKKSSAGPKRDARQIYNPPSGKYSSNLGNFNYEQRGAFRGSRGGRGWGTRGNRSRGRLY
lipoamide; [1]
  thermal stability z-score: 0.11
lipoamide; arsenate co-treatment: none
  thermal stability z-score: 0.124
Potassium arsenate
  thermal stability z-score: 0.0226

## SFN (UniProt P31947)
lipoamide; [1]
  thermal stability z-score: 0.524
lipoamide; arsenate co-treatment: none
  thermal stability z-score: 0.0759
Potassium arsenate
  thermal stability z-score: -0.012

## CCDC124 (UniProt Q96CT7)
lipoamide; [1]
  thermal stability z-score: 0.0112
lipoamide; arsenate co-treatment: none
  thermal stability z-score: -0.0241
Potassium arsenate
  thermal stability z-score: -0.605

## ITPRIPL2 (UniProt Q3MIP1)
lipoamide; [1]
  thermal stability z-score: -0.176
lipoamide; arsenate co-treatment: none
  thermal stability z-score: -0.34
Potassium arsenate
  thermal stability z-score: -0.0231

## COX17 (UniProt Q14061)
lipoamide; [1]
  thermal stability z-score: -0.762
lipoamide; arsenate co-treatment: none
  thermal stability z-score: -2.24
Potassium arsenate
  thermal stability z-score: -2.23

## GNAS
lipoamide; [1]
  thermal stability z-score: 0.278
lipoamide; arsenate co-treatment: none
  thermal stability z-score: 0.172
Potassium arsenate
  thermal stability z-score: 0.0562

## MIS18A (UniProt Q9NYP9)
lipoamide; [1]
  thermal stability z-score: -0.127
lipoamide; arsenate co-treatment: none
  thermal stability z-score: 0.246
Potassium arsenate
  thermal stability z-score: 0.683

## RAD54L2 (UniProt Q9Y4B4)
lipoamide; [1]
  thermal stability z-score: -0.0715
lipoamide; arsenate co-treatment: none
  thermal stability z-score: 0.0462
Potassium arsenate
  thermal stability z-score: -0.235

## RPL29 (UniProt P47914)
lipoamide; [1]
  thermal stability z-score: 0.301
lipoamide; arsenate co-treatment: none
  thermal stability z-score: -0.146
Potassium arsenate
  thermal stability z-score: -0.918

## VPS72 (UniProt Q15906)
lipoamide; [1]
  thermal stability z-score: 1.96
lipoamide; arsenate co-treatment: none
  thermal stability z-score: -0.00979
Potassium arsenate
  thermal stability z-score: -2.49

## UTP4 (UniProt Q969X6)
lipoamide; [1]
  thermal stability z-score: 0.167
lipoamide; arsenate co-treatment: none
  thermal stability z-score: 0.0645
Potassium arsenate
  thermal stability z-score: 0.0306

## GPATCH4 (UniProt Q5T3I0)
lipoamide; [1]
  thermal stability z-score: 1.04
lipoamide; arsenate co-treatment: none
  thermal stability z-score: 0.36
Potassium arsenate
  thermal stability z-score: 0.695

## TRIT1 (UniProt Q9H3H1)
lipoamide; [1]
  thermal stability z-score: -0.0696
lipoamide; arsenate co-treatment: none
  thermal stability z-score: -0.0898
Potassium arsenate
  thermal stability z-score: 0.0151

## VTA1 (UniProt Q9NP79)
lipoamide; [1]
  thermal stability z-score: 0.703
lipoamide; arsenate co-treatment: none
  thermal stability z-score: 0.296
Potassium arsenate
  thermal stability z-score: -0.12

## AFTPH (UniProt Q6ULP2)
lipoamide; [1]
  thermal stability z-score: -0.18
lipoamide; arsenate co-treatment: none
  thermal stability z-score: 0.15
Potassium arsenate
  thermal stability z-score: 0.102

## PSME1 (UniProt Q06323)
lipoamide; [1]
  thermal stability z-score: -0.372
lipoamide; arsenate co-treatment: none
  thermal stability z-score: -0.217
Potassium arsenate
  thermal stability z-score: 0.405

## NCOA5 (UniProt Q9HCD5)
UniProt Q9HCD5, sequence (Q9HCD5 whole entry): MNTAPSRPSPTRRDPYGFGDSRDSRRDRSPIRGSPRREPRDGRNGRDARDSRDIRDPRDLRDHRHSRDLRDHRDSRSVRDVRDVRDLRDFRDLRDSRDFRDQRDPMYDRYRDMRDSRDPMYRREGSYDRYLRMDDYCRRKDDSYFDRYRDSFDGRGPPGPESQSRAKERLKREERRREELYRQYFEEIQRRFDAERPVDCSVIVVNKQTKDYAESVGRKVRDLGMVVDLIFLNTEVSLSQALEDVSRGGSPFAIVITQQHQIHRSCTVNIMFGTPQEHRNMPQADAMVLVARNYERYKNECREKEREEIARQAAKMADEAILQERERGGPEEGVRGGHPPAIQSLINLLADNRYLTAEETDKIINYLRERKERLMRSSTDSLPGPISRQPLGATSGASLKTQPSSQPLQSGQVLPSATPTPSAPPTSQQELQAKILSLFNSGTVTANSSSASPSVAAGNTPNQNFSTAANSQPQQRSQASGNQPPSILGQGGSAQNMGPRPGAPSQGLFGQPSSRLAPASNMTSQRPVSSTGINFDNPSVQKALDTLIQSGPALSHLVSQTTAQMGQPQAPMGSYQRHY
lipoamide; [1]
  thermal stability z-score: 1.91
lipoamide; arsenate co-treatment: none
  thermal stability z-score: 0.857
Potassium arsenate
  thermal stability z-score: 1.05

## GFM2 (UniProt Q969S9)
lipoamide; [1]
  thermal stability z-score: 0.216
lipoamide; arsenate co-treatment: none
  thermal stability z-score: 0.105
Potassium arsenate
  thermal stability z-score: 0.226

## SAFB (UniProt Q15424)
lipoamide; [1]
  thermal stability z-score: 2.61
lipoamide; arsenate co-treatment: none
  thermal stability z-score: 0.651
Potassium arsenate
  thermal stability z-score: 0.0324

## HDAC1 (UniProt Q13547)
lipoamide; arsenate co-treatment: none
  thermal stability z-score: 3.56
Potassium arsenate
  thermal stability z-score: -0.601

## ITFG2 (UniProt Q969R8)
lipoamide; [1]
  thermal stability z-score: 1.01
lipoamide; arsenate co-treatment: none
  thermal stability z-score: 0.534
Potassium arsenate
  thermal stability z-score: -0.266

## ANXA3 (UniProt P12429)
lipoamide; [1]
  thermal stability z-score: 0.902
lipoamide; arsenate co-treatment: none
  thermal stability z-score: 0.504
Potassium arsenate
  thermal stability z-score: 0.227

## TXLNG (UniProt Q9NUQ3)
lipoamide; [1]
  thermal stability z-score: 0.386
lipoamide; arsenate co-treatment: none
  thermal stability z-score: 0.0198
Potassium arsenate
  thermal stability z-score: 1.86

## HINT3 (UniProt Q9NQE9)
lipoamide; [1]
  thermal stability z-score: 0.23
lipoamide; arsenate co-treatment: none
  thermal stability z-score: 0.339
Potassium arsenate
  thermal stability z-score: -1.57

## ATL3 (UniProt Q6DD88)
UniProt Q6DD88, sequence (Q6DD88 whole entry): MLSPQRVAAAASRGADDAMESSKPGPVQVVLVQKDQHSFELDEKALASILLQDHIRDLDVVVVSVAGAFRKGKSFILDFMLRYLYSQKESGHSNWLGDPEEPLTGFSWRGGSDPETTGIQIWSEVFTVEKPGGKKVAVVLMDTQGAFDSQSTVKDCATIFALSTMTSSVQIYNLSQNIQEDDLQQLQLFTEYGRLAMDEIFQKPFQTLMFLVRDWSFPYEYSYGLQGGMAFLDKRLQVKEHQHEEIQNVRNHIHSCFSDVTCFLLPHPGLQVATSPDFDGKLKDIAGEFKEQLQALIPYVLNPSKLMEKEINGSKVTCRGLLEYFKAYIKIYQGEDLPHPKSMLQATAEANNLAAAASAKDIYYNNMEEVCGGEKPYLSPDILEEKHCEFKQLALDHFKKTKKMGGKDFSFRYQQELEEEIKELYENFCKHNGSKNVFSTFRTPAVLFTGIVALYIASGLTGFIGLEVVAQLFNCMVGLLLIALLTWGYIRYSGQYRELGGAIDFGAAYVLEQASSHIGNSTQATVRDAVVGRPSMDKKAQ
lipoamide; [1]
  thermal stability z-score: -0.399
lipoamide; arsenate co-treatment: none
  thermal stability z-score: -0.0961
Potassium arsenate
  thermal stability z-score: 0.731

## AGFG2 (UniProt O95081)
lipoamide; [1]
  thermal stability z-score: -0.423
lipoamide; arsenate co-treatment: none
  thermal stability z-score: -0.0283
Potassium arsenate
  thermal stability z-score: -0.791

## GTF3C1 (UniProt Q12789)
lipoamide; [1]
  thermal stability z-score: 0.0666
lipoamide; arsenate co-treatment: none
  thermal stability z-score: -0.0357
Potassium arsenate
  thermal stability z-score: -0.534

## RALY (UniProt Q9UKM9)
lipoamide; [1]
  thermal stability z-score: 0.0855
lipoamide; arsenate co-treatment: none
  thermal stability z-score: -0.0305
Potassium arsenate
  thermal stability z-score: 0.00385

## CDC42 (UniProt P60953)
UniProt P60953, sequence (P60953 whole entry, looked up): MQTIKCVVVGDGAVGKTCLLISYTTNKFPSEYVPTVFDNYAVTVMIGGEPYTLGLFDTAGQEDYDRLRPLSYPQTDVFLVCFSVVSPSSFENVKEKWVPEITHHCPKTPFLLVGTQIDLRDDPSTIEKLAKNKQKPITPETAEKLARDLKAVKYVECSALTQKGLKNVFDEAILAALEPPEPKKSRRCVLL
lipoamide; [1]
  thermal stability z-score: 0.932
lipoamide; arsenate co-treatment: none
  thermal stability z-score: 0.454
Potassium arsenate
  thermal stability z-score: 0.0976

## SEC23A (UniProt Q15436)
UniProt Q15436, sequence (Q15436 whole entry): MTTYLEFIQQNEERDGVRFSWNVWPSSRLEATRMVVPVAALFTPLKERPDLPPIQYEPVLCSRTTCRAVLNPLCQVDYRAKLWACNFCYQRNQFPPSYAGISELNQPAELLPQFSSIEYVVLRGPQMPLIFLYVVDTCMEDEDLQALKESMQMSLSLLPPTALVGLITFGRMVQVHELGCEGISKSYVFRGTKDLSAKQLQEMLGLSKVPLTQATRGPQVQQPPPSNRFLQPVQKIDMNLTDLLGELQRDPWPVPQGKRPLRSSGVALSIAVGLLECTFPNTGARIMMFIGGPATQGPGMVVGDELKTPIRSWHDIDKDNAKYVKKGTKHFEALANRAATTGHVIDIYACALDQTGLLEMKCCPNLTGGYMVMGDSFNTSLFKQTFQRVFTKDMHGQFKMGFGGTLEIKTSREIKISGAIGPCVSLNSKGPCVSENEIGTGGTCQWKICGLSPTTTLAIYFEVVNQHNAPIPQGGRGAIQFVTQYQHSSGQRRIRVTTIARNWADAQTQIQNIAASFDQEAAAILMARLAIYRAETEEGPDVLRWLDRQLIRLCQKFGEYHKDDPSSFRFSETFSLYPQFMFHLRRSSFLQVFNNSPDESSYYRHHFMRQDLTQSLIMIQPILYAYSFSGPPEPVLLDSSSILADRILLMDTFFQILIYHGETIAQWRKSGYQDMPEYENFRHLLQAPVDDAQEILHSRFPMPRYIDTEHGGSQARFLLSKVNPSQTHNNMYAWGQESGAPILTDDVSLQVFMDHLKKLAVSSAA
lipoamide; [1]
  thermal stability z-score: -0.106
lipoamide; arsenate co-treatment: none
  thermal stability z-score: 0.228
Potassium arsenate
  thermal stability z-score: -0.0157

## DNAJA1 (UniProt P31689)
lipoamide; [1]
  thermal stability z-score: -1.05
lipoamide; arsenate co-treatment: none
  thermal stability z-score: -0.818
Potassium arsenate
  thermal stability z-score: -0.452

## SLC25A35 (UniProt Q3KQZ1)
lipoamide; [1]
  thermal stability z-score: 0.135
lipoamide; arsenate co-treatment: none
  thermal stability z-score: -0.276
Potassium arsenate
  thermal stability z-score: 0.172

## OSBP2 (UniProt Q969R2)
UniProt Q969R2, sequence (Q969R2 whole entry): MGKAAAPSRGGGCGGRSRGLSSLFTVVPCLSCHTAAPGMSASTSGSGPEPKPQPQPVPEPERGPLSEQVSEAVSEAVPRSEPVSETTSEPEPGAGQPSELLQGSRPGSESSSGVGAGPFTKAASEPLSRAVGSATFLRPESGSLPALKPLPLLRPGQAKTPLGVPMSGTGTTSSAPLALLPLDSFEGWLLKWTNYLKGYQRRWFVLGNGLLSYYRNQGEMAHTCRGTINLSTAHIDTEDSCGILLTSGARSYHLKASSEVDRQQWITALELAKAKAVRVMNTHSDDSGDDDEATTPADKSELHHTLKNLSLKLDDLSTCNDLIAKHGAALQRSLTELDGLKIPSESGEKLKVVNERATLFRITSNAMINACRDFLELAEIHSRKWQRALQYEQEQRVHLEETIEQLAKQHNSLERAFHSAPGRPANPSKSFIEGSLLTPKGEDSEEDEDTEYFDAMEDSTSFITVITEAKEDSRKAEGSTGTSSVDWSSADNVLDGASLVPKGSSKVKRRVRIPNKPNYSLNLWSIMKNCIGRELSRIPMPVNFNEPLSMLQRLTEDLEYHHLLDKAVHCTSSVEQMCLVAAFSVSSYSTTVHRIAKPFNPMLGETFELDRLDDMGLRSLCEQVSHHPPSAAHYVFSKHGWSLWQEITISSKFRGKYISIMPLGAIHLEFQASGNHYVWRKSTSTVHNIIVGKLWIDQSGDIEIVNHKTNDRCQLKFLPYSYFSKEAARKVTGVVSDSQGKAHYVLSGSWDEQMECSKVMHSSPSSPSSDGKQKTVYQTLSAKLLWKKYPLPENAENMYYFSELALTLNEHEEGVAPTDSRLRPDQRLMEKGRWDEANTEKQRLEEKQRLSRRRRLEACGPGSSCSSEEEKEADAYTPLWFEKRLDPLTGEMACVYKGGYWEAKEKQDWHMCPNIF
lipoamide; [1]
  thermal stability z-score: 0.192
lipoamide; arsenate co-treatment: none
  thermal stability z-score: 0.026
Potassium arsenate
  thermal stability z-score: -0.124

## DDX39A (UniProt O00148)
UniProt O00148, sequence (O00148 whole entry): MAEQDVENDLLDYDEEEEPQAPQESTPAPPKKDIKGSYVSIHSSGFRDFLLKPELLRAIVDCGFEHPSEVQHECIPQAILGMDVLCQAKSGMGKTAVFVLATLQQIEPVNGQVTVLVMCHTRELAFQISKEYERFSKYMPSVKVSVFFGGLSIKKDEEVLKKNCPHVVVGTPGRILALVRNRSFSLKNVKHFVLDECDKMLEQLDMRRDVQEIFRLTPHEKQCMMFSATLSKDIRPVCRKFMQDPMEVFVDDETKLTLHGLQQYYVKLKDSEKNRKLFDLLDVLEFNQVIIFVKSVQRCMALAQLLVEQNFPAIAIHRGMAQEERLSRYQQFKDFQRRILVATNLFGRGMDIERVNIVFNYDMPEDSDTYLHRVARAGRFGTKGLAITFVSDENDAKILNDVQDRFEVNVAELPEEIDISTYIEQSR
lipoamide; [1]
  thermal stability z-score: -0.214
lipoamide; arsenate co-treatment: none
  thermal stability z-score: 0.12
Potassium arsenate
  thermal stability z-score: 0.441

## PM20D2 (UniProt Q8IYS1)
lipoamide; [1]
  thermal stability z-score: 0.623
lipoamide; arsenate co-treatment: none
  thermal stability z-score: 1.29
Potassium arsenate
  thermal stability z-score: 1.81

## UniProt F8W031
lipoamide; [1]
  thermal stability z-score: -3.73
lipoamide; arsenate co-treatment: none
  thermal stability z-score: -2.58
Potassium arsenate
  thermal stability z-score: 0.325

## IPO11 (UniProt Q9UI26)
lipoamide; [1]
  thermal stability z-score: -0.322
lipoamide; arsenate co-treatment: none
  thermal stability z-score: -0.104
Potassium arsenate
  thermal stability z-score: -0.0713
